Data: ChEMBL document CHEMBL4257492, “Discovery of 2-aminoimidazole and 2-amino imidazolyl-thiazoles as non-xanthine human adenosine A3 receptor antagonists: SAR and molecular modeling studies” (Medchemcomm, 2018)
Activity calls are given as the source filed them. The rule behind the calls is not given here.

Legend:
[1] = target: T1, Adenosine receptor A2b (Homo sapiens, UniProt P29275); experiment: Antagonist activity at recombinant human A2B receptor expressed in CHO cell membranes assessed as inhibition of NECA-stimulated adenylyl cyclase activity; format: functional, cell-based
T1 sequence (P29275 whole entry): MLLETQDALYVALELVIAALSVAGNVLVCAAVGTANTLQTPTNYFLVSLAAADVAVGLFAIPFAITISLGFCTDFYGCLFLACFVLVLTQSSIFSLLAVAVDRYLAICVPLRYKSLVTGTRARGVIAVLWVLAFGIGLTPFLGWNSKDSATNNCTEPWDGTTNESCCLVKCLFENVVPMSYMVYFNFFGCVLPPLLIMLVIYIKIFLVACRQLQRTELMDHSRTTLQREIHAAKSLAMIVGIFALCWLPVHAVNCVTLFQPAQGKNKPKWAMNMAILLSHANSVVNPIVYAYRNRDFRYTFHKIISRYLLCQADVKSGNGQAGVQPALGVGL

[2] = target: T2, Adenosine receptor A1 (Homo sapiens, UniProt P30542); experiment: (§1) Displacement of [3H]CCPA from recombinant human A1 receptor expressed in CHO cell membranes
T2 sequence (P30542 whole entry): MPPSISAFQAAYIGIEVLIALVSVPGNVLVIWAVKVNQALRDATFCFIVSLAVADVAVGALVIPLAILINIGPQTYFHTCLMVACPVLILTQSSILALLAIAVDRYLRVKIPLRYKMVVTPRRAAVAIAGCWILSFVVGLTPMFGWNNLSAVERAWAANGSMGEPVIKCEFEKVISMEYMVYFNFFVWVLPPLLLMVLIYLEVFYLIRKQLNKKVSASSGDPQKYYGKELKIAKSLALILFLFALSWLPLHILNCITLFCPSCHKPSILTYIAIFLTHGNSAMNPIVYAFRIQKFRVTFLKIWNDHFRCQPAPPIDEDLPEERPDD

[3] = target: Adenosine receptor A2a (Homo sapiens, UniProt P29274); experiment: Displacement of [3H]NECA from recombinant human A2A receptor expressed in CHO cell membranes
[4] = target: T3, Adenosine receptor A3 (Homo sapiens, UniProt P0DMS8); experiment: (§2) Displacement of [3H]HEMADO from recombinant human A3 receptor expressed in CHO cell membranes
T3 sequence (P0DMS8 whole entry): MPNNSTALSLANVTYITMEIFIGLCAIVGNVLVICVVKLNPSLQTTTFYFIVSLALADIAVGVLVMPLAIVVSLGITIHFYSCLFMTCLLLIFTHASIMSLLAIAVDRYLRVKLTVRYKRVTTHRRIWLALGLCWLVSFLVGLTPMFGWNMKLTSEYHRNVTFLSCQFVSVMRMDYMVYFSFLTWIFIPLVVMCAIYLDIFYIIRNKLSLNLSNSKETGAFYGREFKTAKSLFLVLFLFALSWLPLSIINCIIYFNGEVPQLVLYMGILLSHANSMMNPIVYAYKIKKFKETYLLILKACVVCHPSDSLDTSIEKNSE

[5] = target: T4, Adenosine receptor A2b (Homo sapiens) (UniProt P29275); experiment: Antagonist activity at recombinant human A2B receptor expressed in CHO cell membranes assessed as inhibition of NECA-stimulated adenylyl cyclase activity up to 30 uM; format: functional, cell-based
T4 sequence (whole entry): T1 sequence (P29275 whole entry)

[6] = target: T5, Adenosine receptor A1 (Homo sapiens) (UniProt P30542); experiment: as §1
T5 sequence (whole entry): T2 sequence (P30542 whole entry)

[7] = target: T6, Adenosine receptor A3 (Homo sapiens) (UniProt P0DMS8); experiment: as §2
T6 sequence (whole entry): T3 sequence (P0DMS8 whole entry)

[8] = species: Homo sapiens; experiment: Selectivity ratio of Ki for displacement of [3H]CCPA from recombinant human A1 receptor expressed in CHO cell membranes to displacement of [3H]HEMADO from recombinant human A3 receptor expressed in CHO cell membranes
[9] = species: Homo sapiens; experiment: Selectivity ratio of Ki for displacement of [3H]NECA from recombinant human A2A receptor expressed in CHO cell membranes to displacement of [3H]HEMADO from recombinant human A3 receptor expressed in CHO cell membranes

Chain of Adenosine receptor A2a (P29274 whole entry): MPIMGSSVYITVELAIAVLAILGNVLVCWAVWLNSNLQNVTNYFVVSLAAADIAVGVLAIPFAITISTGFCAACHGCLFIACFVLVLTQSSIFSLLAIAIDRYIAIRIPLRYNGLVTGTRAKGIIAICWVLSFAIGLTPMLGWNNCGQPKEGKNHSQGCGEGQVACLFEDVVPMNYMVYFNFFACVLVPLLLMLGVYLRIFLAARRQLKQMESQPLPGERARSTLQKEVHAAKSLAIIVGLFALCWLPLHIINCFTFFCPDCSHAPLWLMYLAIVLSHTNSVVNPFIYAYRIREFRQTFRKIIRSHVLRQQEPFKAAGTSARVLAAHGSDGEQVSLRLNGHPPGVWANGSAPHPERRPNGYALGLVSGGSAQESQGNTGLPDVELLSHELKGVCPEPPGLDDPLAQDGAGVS

## CN(C)c1nc(NC(=O)c2ccccc2)sc1C(=O)c1cnc(N)n1-c1ccc(C(F)(F)F)cc1
[1]
  Ki: > 10 µM
[2]
  Ki: 19.7 µM
[3]
  Ki: 16.7 µM
[4]
  Ki: 4.92 µM

## CS(=O)(=O)c1ccc(C(=O)c2cnc(N)n2-c2ccccc2)cc1
[5]
  inhibition: inactive
[6]
  inhibition: inactive
[7]
  inhibition: Active

## CN(C)c1nc(NC(=O)c2ccccc2)sc1C(=O)c1cnc(N)n1-c1ccc(Cl)cc1
[1]
  Ki: > 10 µM
[2]
  Ki: 25.4 µM
[3]
  Ki: 11.8 µM
[4]
  Ki: 4.32 µM

## Nc1ncc(C(=O)c2ccc(Cl)cc2)n1-c1ccc(C(F)(F)F)cc1
[5]
  inhibition: inactive
[6]
  inhibition: inactive
[7]
  inhibition: Active

## COc1ccc(-n2c(C(=O)c3sc(N4CCOCC4)nc3-c3ccccc3)cnc2N)cc1
[1]
  Ki: > 10 µM
[2]
  Ki: > 100 µM
[3]
  Ki: > 100 µM
[4]
  Ki: 13 µM

## Cc1ccc(C(=O)c2cnc(N)n2-c2cccc(Cl)c2)cc1
[5]
  inhibition: inactive
[6]
  inhibition: inactive
[7]
  inhibition: Active

## COc1ccc(-n2c(C(=O)c3sc(Nc4ccccc4)nc3-c3ccccc3)cnc2N)cc1
[1]
  Ki: > 10 µM
[2]
  Ki: 3.67 µM
[3]
  Ki: 8.84 µM
[4]
  Ki: 0.326 µM

## Cc1nc(Nc2ccccc2)sc1C(=O)c1cnc(N)n1-c1ccc(Cl)cc1
[1]
  Ki: > 10 µM
[2]
  Ki: 33.5 µM
[3]
  Ki: 11.2 µM
[4]
  Ki: 0.802 µM

## Cc1ccc(-n2c(C(=O)c3sc(N4CCOCC4)nc3-c3ccccc3)cnc2N)cc1
[1]
  Ki: > 10 µM
[2]
  Ki: > 100 µM
[3]
  Ki: 34 µM
[4]
  Ki: 17.8 µM

## COc1ccc(C(=O)c2cnc(N)n2-c2ccc(F)cc2)cc1
[5]
  inhibition: inactive
[6]
  inhibition: inactive
[7]
  inhibition: inactive

## Nc1ncc(C(=O)c2ccncc2)n1-c1ccc(Cl)cc1
[5]
  inhibition: inactive
[6]
  inhibition: inactive
[7]
  inhibition: Active

## Nc1ncc(C(=O)c2ccc(Cl)cc2)n1-c1ccc(F)cc1
[5]
  inhibition: inactive
[6]
  inhibition: inactive
[7]
  inhibition: inactive

## Cc1nc(Nc2ccc(Cl)cc2)sc1C(=O)c1cnc(N)n1-c1ccc(F)cc1
[1]
  Ki: > 10 µM
[2]
  Ki: 19.8 µM
[3]
  Ki: 13 µM
[4]
  Ki: 0.871 µM

## Cc1ccc(Nc2nc(C)c(C(=O)c3cnc(N)n3-c3ccc(F)cc3)s2)cc1
[8]
  Ratio Ki: 20 to 40
[9]
  Ratio Ki: 20 to 40
[1]
  Ki: > 10 µM
[2]
  Ki: 37.5 µM
[3]
  Ki: 12.4 µM
[4]
  Ki: 0.487 µM

## Cc1nc(Nc2ccccc2)sc1C(=O)c1cnc(N)n1-c1ccc(F)cc1
[8]
  Ratio Ki: 200
[9]
  Ratio Ki: 40
[1]
  Ki: > 10 µM
[2]
  Ki: 39.2 µM
[3]
  Ki: 8.04 µM
[4]
  Ki: 0.19 µM

## COc1ccc(-n2c(C(=O)c3sc(Nc4ccccc4)nc3C)cnc2N)cc1
[8]
  Ratio Ki: 20 to 40
[9]
  Ratio Ki: 20 to 40
[1]
  Ki: > 10 µM
[2]
  Ki: 48.6 µM
[3]
  Ki: 13.4 µM
[4]
  Ki: 0.574 µM

## Nc1ncc(C(=O)c2ccncc2)n1-c1ccc(F)cc1
[5]
  inhibition: inactive
[6]
  inhibition: inactive

## Nc1ncc(C(=O)c2ccncc2)n1-c1ccc(C(F)(F)F)cc1
[5]
  inhibition: inactive
[6]
  inhibition: inactive

## Nc1ncc(C(=O)c2sc(Nc3ccccc3)nc2-c2ccccc2)n1-c1ccc(F)cc1
[8]
  Ratio Ki: 20 to 40
[9]
  Ratio Ki: 20 to 40
[1]
  Ki: > 10 µM
[2]
  Ki: 6.71 µM
[3]
  Ki: 7.41 µM
[4]
  Ki: 0.305 µM

## Cc1ccc(C(=O)c2cnc(N)n2-c2ccccc2Cl)cc1
[5]
  inhibition: inactive
[6]
  inhibition: inactive
[7]
  inhibition: Active

## Nc1ncc(C(=O)c2ccc(Cl)cc2)n1-c1ccc(F)c(Cl)c1
[5]
  inhibition: inactive
[6]
  inhibition: inactive
[7]
  inhibition: Active

## Cc1ccc(C(=O)c2cnc(N)n2-c2ccc(Cl)cc2)cc1
[5]
  inhibition: inactive
[6]
  inhibition: inactive
[7]
  inhibition: inactive

## Cc1ccc(C(=O)c2cnc(N)n2-c2ccc(F)cc2)cc1
[5]
  inhibition: inactive
[6]
  inhibition: inactive
[7]
  inhibition: inactive

## COc1ccc(-n2c(C(=O)c3sc(Nc4ccc(Cl)cc4)nc3C)cnc2N)cc1
[1]
  Ki: > 10 µM
[2]
  Ki: 33.3 µM
[3]
  Ki: 10.3 µM
[4]
  Ki: 1.6 µM
